Legend:
Test in all cases: relative viability (nuclei count vs DMSO), 5 days (fraction); higher = more cells survive
AZD1208 + Dasatinib = compound: N[C@@H]1CCCN(c2c(/C=C3\SC(=O)NC3=O)cccc2-c2ccccc2)C1 [AZD1208] + Cc1nc(Nc2ncc(C(=O)Nc3c(C)cccc3Cl)s2)cc(N2CCN(CCO)CC2)n1 [Dasatinib] (partner 0.075 µM)
Outline: (§1)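 Values are medians from duplicate plates. Each reflects relative viability, defined as the nuclei count of treated wells over that of vehicle wells. Lung cancer cell lines in 1536-well plates were pin-tool dosed one day after seeding with one drug alone or with a fixed anchor-drug dose plus five library-drug doses (not always all listed) in √10 steps, then fixed, stained and imaged at 4× after 5 days.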

XMD14-99 + Olaparib = compound: CN1CCN(CC1)C2=CC(=C(C=C2)NC3=NC(=C(S3)C(=O)C4=C(C=CC=C4Cl)Cl)N)OC [XMD14-99] + O=C(c1cc(Cc2n[nH]c(=O)c3ccccc23)ccc1F)N1CCN(C(=O)C2CC2)CC1 [Olaparib] (partner 8 µM)
Outline: as §1

XMD14-99 + Bortezomib = compound: CN1CCN(CC1)C2=CC(=C(C=C2)NC3=NC(=C(S3)C(=O)C4=C(C=CC=C4Cl)Cl)N)OC [XMD14-99] + CC(C)C[C@H](NC(=O)[C@H](Cc1ccccc1)NC(=O)c1cnccn1)B(O)O [Bortezomib] (partner 0.002 µM)
Outline: as §1

XMD14-99 + Pictilisib = compound: CN1CCN(CC1)C2=CC(=C(C=C2)NC3=NC(=C(S3)C(=O)C4=C(C=CC=C4Cl)Cl)N)OC [XMD14-99] + CS(=O)(=O)N1CCN(Cc2cc3nc(-c4cccc5[nH]ncc45)nc(N4CCOCC4)c3s2)CC1 [Pictilisib] (partner 1 µM)
Outline: as §1

Row | Cell Line | relative viability (AZD1208 + Dasatinib; first compound 0.08 µM) | relative viability (AZD1208 + Dasatinib; first compound 0.253 µM) | relative viability (AZD1208 + Dasatinib; first compound 0.8 µM) | relative viability (AZD1208 + Dasatinib; first compound 2.53 µM) | relative viability (AZD1208 + Dasatinib; first compound 8 µM) | relative viability (XMD14-99 + Olaparib; first compound 0.08 µM) | relative viability (XMD14-99 + Olaparib; first compound 0.8 µM) | relative viability (XMD14-99 + Olaparib; first compound 2.53 µM) | relative viability (XMD14-99 + Olaparib; first compound 8 µM) | relative viability (XMD14-99 + Bortezomib; first compound 0.08 µM) | relative viability (XMD14-99 + Bortezomib; first compound 0.8 µM) | relative viability (XMD14-99 + Bortezomib; first compound 2.53 µM) | relative viability (XMD14-99 + Bortezomib; first compound 8 µM) | relative viability (XMD14-99 + Pictilisib; first compound 0.08 µM) | relative viability (XMD14-99 + Pictilisib; first compound 0.8 µM) | relative viability (XMD14-99 + Pictilisib; first compound 2.53 µM) | relative viability (XMD14-99 + Pictilisib; first compound 8 µM)
1 | NCI-H2347 | 0.306 | 0.339 | 0.339 | 0.321 | 0.257 | 0.557 | 0.568 | 0.601 | 0.446 | 1.22 | 0.691 | 0.981 | 0.553 | 0.519 | 0.871 | 0.477 | 0.431
2 | NCI-H2405 | 0.205 | 0.198 | 0.202 | 0.21 | 0.184 | 0.839 | 0.918 | 0.758 | 0.723 | 1.06 | 0.99 | 0.9 | 0.874 | 0.39 | 0.414 | 0.457 | 0.248
3 | NCI-H3122 | 0.833 | 0.75 | 0.642 | 0.618 | 0.0921 | 0.671 | 0.682 | 0.62 | 0.441 | 0.965 | 0.948 | 0.913 | 0.692 | 0.563 | 0.474 | 0.446 | 0.326
4 | PC-3 [JPC-3] | 1.13 | 1.11 | 1.01 | 1.05 | 0.957 | 1.09 | 1.1 | 1.16 | 0.733 | 0.901 | 0.832 | 0.832 | 0.723 | 0.793 | 0.73 | 0.717 | 0.586
5 | PC-14 | 0.268 | 0.257 | 0.201 | 0.198 | 0.169 | 0.276 | 0.248 | 0.164 | 0.0816 | 0.831 | 0.713 | 0.735 | 0.698 | 0.621 | 0.611 | 0.573 | 0.312
6 | RERF-LC-KJ | 0.685 | 0.608 | 0.546 | 0.595 | 0.483 | 0.986 | 0.856 | 0.882 | 0.648 | 1.07 | 1.18 | 1.08 | 0.852 | 0.668 | 0.521 | 0.487 | 0.477
7 | SK-LU-1 | 0.162 | 0.14 | 0.154 | 0.168 | 0.133 | 0.423 | 0.459 | 0.374 | 0.34 | 1.43 | 1.42 | 1.03 | 0.943 | 0.554 | 0.576 | 0.545 | 0.344
8 | SW 1573 | 0.404 | 0.537 | 0.438 | 0.586 | 0.319 | 0.445 | 0.457 | 0.488 | 0.308 | 1.09 | 0.868 | 0.932 | 0.936 | 0.434 | 0.531 | 0.496 | 0.547
9 | UMC-11 | 0.462 | 0.469 | 0.446 | 0.483 | 0.41 | 0.363 | 0.313 | 0.345 | 0.288 | 0.701 | 0.775 | 0.673 | 0.526 | 0.802 | 0.856 | 0.795 | 0.663

Source: the supplement of paper PMC10307832
